Data reported in patent US6071899A, “Azetidinone derivatives for the treatment of atherosclerosis” (SmithKline Beecham p.l.c., priority 1994, dated 2000).

Tests used:
[1] = biological target: T1, Lp-PLA2 (Homo sapiens, UniProt Q13093); assay: Screen for Lp-PLA2 inhibition; type: biochemical; conditions: artificial substrate (A) 20 μM, 37° C., pH 7.4, 10 min pre-incubation, 405 nm; enzyme partially purified from human plasma
T1 construct: Lp-PLA2 was partially purified by density gradient centrifugation of human plasma; from tissue; host or cells: human plasma (pooled active fractions, partially purified)
T1 sequence (Q13093 22-441): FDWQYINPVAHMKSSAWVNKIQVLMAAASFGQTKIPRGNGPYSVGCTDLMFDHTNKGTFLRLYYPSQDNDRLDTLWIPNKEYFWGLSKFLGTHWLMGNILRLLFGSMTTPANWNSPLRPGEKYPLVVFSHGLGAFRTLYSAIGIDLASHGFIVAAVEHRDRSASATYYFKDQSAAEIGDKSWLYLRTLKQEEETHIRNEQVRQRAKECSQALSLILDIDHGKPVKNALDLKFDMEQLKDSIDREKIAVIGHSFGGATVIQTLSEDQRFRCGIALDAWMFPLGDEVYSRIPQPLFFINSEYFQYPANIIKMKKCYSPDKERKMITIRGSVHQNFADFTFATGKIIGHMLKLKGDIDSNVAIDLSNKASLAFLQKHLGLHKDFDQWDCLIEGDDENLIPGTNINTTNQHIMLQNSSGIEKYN
Method: 1. Screen for Lp-PLA2 inhibition.
Enzyme activity was determined by measuring the rate of turnover of the artificial substrate (A) at 37° C. in 50 mM HEPES (N-2-hydroxyethylpiperazine-N'-2-ethanesulphonic acid) buffer containing 150 mM NaCl, pH 7.4. [drawing 7] Assays were performed in 96 well titre plates.
Lp-PLA2 was partially purified by density gradient centrifugation of human plasma. Active fractions were pooled and used as the source of Lp-PLA2. The enzyme was pre-incubated at 37° C. with vehicle or test compound for 10 min in a total volume of 180 μl. The reaction was then initiated by the addition of 20 μl 10× substrate (A) to give a final substrate concentration of 20 μM. The reaction was followed at 405 nm for 20 minutes using a plate reader with automatic mixing. The rate of reaction was measured as the rate of change of absorbance.

[2] = test system: lyso-PtdCho formation in human LDL; assay: Inhibition of Cu2+ stimulated lyso-phosphatidylcholine (lyso-PtdCho) formation; type: biochemical; conditions: 5 μM Cu2+
Method: 2. Inhibition of Cu 2+stimulated lyso-phosphatidylcholine (lyso-PtdCho) formation.
A 1 ml aliquot of human LDL (0.25 mg protein/ml) was incubated for 15 min at 37° C. with compound or vehicle. 5 μM Cu^2+ was then added to allow oxidation/lyso-PtdCho formation to occur. The incubation was terminated by the addition of 3.75 ml chloroform/methanol/c HCl (200:400:5,v/v/v). Following the addition of 1.25 ml chloroform and 1.25 ml 0.1M HCl, the mixture was vortexed and centrifuged. The lower phase was carefully removed and the upper phase re-extracted with an equal volume of synthetic lower phase. The extracts were pooled and dried under nitrogen.
Phospholipids were reconstituted into 50 μl chloroform/methanol (2:1 v/v). 10 μl aliquots were spotted on to pre-run silica gel HPTLC plates and then developed in chloroform/methanol 25-30% methylamine (60:20:5 v/v/v). Plates were subsequently sprayed with the flourescent indicator, 2-p-toluidinylnaphthalene-6-sulphonic acid (1 mM in 50 mM Tris/HCl, pH 7.4) to identify phospholipid components. Fluorescence was measured at 222 nm using a CAMAG TLC scanner. Lipoprotein lyso-PtdCho content was quantified using a standard curve (0.05-0.5 μg) prepared in parallel.

SMILES | IC50 [1] | IC50 ([2]; human LDL 0.25 mg protein/ml, 15 min pre-incubation at 37° C., read-out: IC50 (inhibition of LDL lyso-PtdCho accumulation stimulated by copper ions)) | inhibition of LDL lyso-PtdCho accumulation stimulated by copper ions (in words) ([2]; human LDL)
CCCC[S+]([O-])C1CC(=O)N1CC(=O)CCc1ccccc1 (centres unmarked) [Example 18, 4-Butylsulfinyl-1-(4-phenyl-2-oxobutyl)azetidin-2-one] | 30 to 400 nM |  | 
C[S+]([O-])C1CC(=O)N1CCCCc1ccccc1 (centres unmarked) [Example 84, 4-Methylsulfinyl-1-(4-phenylbutyl)-azetidin-2-one] | 30 to 400 nM |  | 
CCCCCC[S+]([O-])C1CC(=O)N1CC(=O)CCc1ccccc1 (single isomer, unassigned) [Example 24, 4-Hexylsulfinyl-1-(4-phenyl-2-oxobutyl)azetidin-2-one] | 30 to 400 nM |  | 

Continued, in another order:

IC50 [1] | IC50 ([2]; human LDL 0.25 mg protein/ml, 15 min pre-incubation at 37° C., read-out: IC50 (inhibition of LDL lyso-PtdCho accumulation stimulated by copper ions)) | SMILES | inhibition of LDL lyso-PtdCho accumulation stimulated by copper ions (in words) ([2]; human LDL)
30 to 400 nM |  | C[S+]([O-])C1CC(=O)N1CC(=O)NCCCCCCc1ccccc1 (centres unmarked) [Example 63, N-6-Phenylbexyl-(4-methylsulphinyl-2-oxoazetidin-1-yl)acetamide] | 
30 to 400 nM |  | CCCCCC[S+]([O-])C1CC(=O)N1CC(=O)NCCCCCCc1ccccc1 (single isomer, unassigned) [Example 79, N-(6-Phenylhexyl)-(4-n-hexylsulfinyl-2-oxoazetidin-1-yl)acetamide] | 
30 to 400 nM | ~60 nM | C[C@@H]1C(=O)N(CC(=O)NCCCCCCc2ccccc2)[C@H]1[S+](C)[O-] (relative stereo) [Example 71, trans-N-(6-phenylhexyl)-(3-methyl-4-methylsulphinyl-2-oxoazetidin-1-yl)acetamide] | dose dependently inhibits
